{
  "source": "patent US12186314B2",
  "about": "“Compositions and methods for treatment, amelioration, and prevention of anesthesia-induced hypothermia” (ARIZONA BOARD OF REGENTS ON BEHALF OF THE UNIVERSITY OF …, priority 2015, dated 2025)",
  "key": {"TRPV1 [1]": {"target": "T1, TRPV1 (Rattus norvegicus, UniProt O35433)", "T1 sequence (O35433 whole entry)": "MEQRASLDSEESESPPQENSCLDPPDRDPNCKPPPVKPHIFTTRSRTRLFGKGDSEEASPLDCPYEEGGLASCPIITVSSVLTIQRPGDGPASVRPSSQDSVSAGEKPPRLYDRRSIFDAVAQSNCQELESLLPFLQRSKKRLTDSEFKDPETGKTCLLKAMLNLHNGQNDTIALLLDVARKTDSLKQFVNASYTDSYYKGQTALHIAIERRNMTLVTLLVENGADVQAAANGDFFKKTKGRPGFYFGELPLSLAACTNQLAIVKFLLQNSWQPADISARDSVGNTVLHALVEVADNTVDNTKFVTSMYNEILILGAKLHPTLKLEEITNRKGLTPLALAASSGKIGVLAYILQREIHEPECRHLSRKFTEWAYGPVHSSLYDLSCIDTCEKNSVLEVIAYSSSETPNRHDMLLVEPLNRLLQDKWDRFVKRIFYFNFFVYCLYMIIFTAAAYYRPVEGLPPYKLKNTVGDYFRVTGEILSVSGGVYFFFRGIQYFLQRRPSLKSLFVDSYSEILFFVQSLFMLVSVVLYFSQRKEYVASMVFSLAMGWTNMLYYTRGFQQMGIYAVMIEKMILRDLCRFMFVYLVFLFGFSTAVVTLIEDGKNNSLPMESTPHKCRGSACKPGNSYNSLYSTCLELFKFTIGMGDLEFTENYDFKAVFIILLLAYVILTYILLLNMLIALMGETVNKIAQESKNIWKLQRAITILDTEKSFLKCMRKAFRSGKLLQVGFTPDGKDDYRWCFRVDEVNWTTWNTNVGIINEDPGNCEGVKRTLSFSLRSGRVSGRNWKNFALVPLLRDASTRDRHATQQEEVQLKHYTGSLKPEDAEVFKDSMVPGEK", "set-up": "from tissue; host or cells: whole live non-anesthetized rats", "settings": "non-anesthetized (unanesthetized) rats, cited from earlier work"}, "TRPV1 [2]": {"target": "T2, TRPV1 (Homo sapiens, UniProt Q8NER1)", "T2 construct": "host or cells: human subjects (clinical observations)", "T2 sequence (Q8NER1 whole entry)": "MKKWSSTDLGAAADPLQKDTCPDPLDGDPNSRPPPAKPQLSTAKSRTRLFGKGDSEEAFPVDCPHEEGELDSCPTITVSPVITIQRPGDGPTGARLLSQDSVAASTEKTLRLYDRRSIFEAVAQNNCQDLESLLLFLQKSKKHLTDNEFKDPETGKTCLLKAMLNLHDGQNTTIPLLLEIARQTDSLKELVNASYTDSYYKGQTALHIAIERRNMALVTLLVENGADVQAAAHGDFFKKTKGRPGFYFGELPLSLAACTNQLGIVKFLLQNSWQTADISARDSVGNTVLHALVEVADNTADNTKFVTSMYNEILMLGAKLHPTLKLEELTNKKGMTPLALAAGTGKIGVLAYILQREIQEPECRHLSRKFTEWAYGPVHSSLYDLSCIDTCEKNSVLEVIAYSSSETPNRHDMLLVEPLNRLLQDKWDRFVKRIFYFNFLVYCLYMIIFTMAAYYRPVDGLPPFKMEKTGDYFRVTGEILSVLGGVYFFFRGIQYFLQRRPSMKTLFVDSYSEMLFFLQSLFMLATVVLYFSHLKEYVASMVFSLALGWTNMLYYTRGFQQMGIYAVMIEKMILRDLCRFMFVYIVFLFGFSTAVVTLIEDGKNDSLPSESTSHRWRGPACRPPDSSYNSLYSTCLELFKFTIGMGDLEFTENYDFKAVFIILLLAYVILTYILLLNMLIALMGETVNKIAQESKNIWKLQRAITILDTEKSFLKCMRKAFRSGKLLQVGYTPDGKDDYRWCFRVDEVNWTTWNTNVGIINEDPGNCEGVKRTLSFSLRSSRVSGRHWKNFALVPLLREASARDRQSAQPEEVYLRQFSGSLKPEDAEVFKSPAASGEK", "settings": "non-anesthetized humans; cited from earlier work"}, "TRPV1 [3]": {"target": "T1, TRPV1", "assay": "isoflurane anesthesia-induced hypothermia in adult rats, various TRPV1 antagonists, rectal temperature", "type": "in vivo", "set-up": "from tissue; host or cells: whole live non-anesthetized rats", "settings": "isoflurane 2 L/min, 5% induction, 2.5% maintenance, 20 minutes post anesthesia-induction", "protocol": "After acclimatizing to the testing chamber and obtaining baseline core body temperature, adult rats were anesthetized with isoflurane (2 L/min, 5% induction, 2.5% maintenance) and the anesthetized animals were injected with vehicle or various TRPV1 antagonists at doses described and rectal temperature was monitored for 20 minutes post anesthesia-induction."}, "TRPV1 [4]": {"target": "T1, TRPV1", "settings": "24 hours post surgery"}, "TRPV1 [5]": {"target": "T1, TRPV1", "assay": "volatile (isoflurane) anesthesia-induced hypothermia in adult rats, rectal core body temperature", "type": "in vivo", "set-up": "from tissue; host or cells: whole live non-anesthetized rats", "settings": "isoflurane 5% induction, 2.5% maintenance, 0.01, 0.1 and 1 mg/kg, 5 min intervals, 0.1 and 1 mg/kg significant at all time points (p<0.01)", "protocol": "Briefly, after obtaining baseline core body temperature, lightly restrained rats were anesthetized with isoflurane (5% induction, 2.5% maintenance), the effect of varying dose of AMG 517 (0.01, 0.1 and 1 mg/kg) and control (vehicle) on rectally-measured temperature (core body temperature) was measured at 5 min intervals. At 20 minutes, a warming blanket was used to prevent further temperature drop in the control (vehicle) group. Vehicle treated rats developed hypothermia after exposure to anesthesia."}, "TRPV1 [6]": {"target": "T1, TRPV1", "assay": "isoflurane anesthesia-induced hypothermia in neonatal rats, core body temperature", "type": "in vivo", "set-up": "from tissue; host or cells: whole live non-anesthetized rats", "settings": "neonatal rats (age 10d), 1 mg/kg i.v. (at 20 min time point) and 2 mg/kg (all time points)", "protocol": "Briefly, after gently separating neonatal male or female rats (age 10d) from the littermates, the animals were exposed to isoflurane anesthesia (5% induction, 2.5% maintenance), and then were injected with either vehicle or AMG 517 (1-2 mg/kg, i.v.) and core body temperature was measured at 5 minute intervals."}, "TRPV1 [7]": {"target": "T1, TRPV1", "assay": "core body temperature during isoflurane anesthesia and in the post-anesthesia period", "type": "in vivo", "set-up": "from tissue; host or cells: whole live non-anesthetized rats", "settings": "rats", "protocol": "After taking baseline core body temperature, rats were anesthetized with isoflurane and quickly injected with either vehicle or 0.1 mg/kg of AMG 517 via a tail vein injection. The core body temperature was measured every 5 minutes during the duration of anesthesia (45 min) and 30 minutes after that (n=8 per group) (see, FIG. 3)."}, "TRPV1 [8]": {"target": "T1, TRPV1", "assay": "ketamine-induced hypothermia in rats, core body temperature", "type": "in vivo", "set-up": "from tissue; host or cells: whole live non-anesthetized rats", "settings": "ketamine 100 mg/kg, 0.01-1 mg/kg tail vein", "protocol": "This example describes the use of AMG 517 to reverse hypothermia induced by a non-volatile anesthetic (ketamine) (FIG. 5). After taking baseline core body temperature, rats were anesthetized with ketamine (100 mg/kg) and quickly injected with either vehicle or 0.01-1 mg/kg of AMG 517 via a tail vein injection. The core body temperature was measured every 5 minutes for 20 minutes post ketamine injection (n=8 per group)."}},
  "note": "Entries after “also recorded” stand apart in the source; their conditions may differ. Read-outs that look alike come from different tables or passages of the source.",
  "data": [
    {"smiles": "Cc1cc2c(NC(=O)N[C@@H]3CC(CF)(CF)Oc4cc(Cl)ccc43)cccc2cn1", "note": "[A-1165442]", "values": [
      {"measurement": "ability to cause hyperthermia", "setting": "TRPV1 [1]", "result": "unable to cause hyperthermia"}
    ]},
    {"smiles": "CC(C)(C)c1ccc2c(c1)CC[C@H]2NC(=O)Nc1cccc2[nH]ncc12", "note": "[ABT 102]", "values": [
      {"measurement": "ability to cause hyperthermia", "setting": "TRPV1 [2]", "result": "able to cause hyperthermia"},
      {"measurement": "reversal/prevention of anesthesia-induced hypothermia (rectal temperature)", "setting": "TRPV1 [3]", "result": "dose dependently reverse anesthesia-induced hypothermia"},
      {"measurement": "ability to cause hyperthermia", "setting": "TRPV1 [1]", "result": "able to cause hyperthermia"},
      {"measurement": "ability to cause hyperthermia", "setting": "TRPV1 [1]; listed as ABT", "result": "cause hyperthermia in unanesthetized rats"}
    ]},
    {"smiles": "CC(=O)Nc1nc2c(Oc3cc(-c4ccc(C(F)(F)F)cc4)ncn3)cccc2s1", "note": "[AMG 517]", "values": [
      {"measurement": "opioid sparing effect on postsurgical thermal and mechanical hyperalgesia", "setting": "TRPV1 [4]; rats, preemptive tail vein dose before incision, subcutaneous morphine", "result": "opioid sparing effect"},
      {"measurement": "ability to cause hyperthermia", "setting": "TRPV1 [2]", "result": "able to cause hyperthermia"},
      {"measurement": "reversal of anesthesia-induced hypothermia (rectally-measured core body temperature)", "setting": "TRPV1 [5]", "result": "dose dependently reversed anesthesia-induced hypothermia"},
      {"measurement": "reversal of anesthesia-induced hypothermia (core body temperature)", "setting": "TRPV1 [6]", "result": "partially and statistically significantly"},
      {"measurement": "hyperthermia in the post-anesthesia period", "setting": "TRPV1 [7]; 0.1 mg/kg tail vein, 30 minutes after anesthesia, 0.1 mg/kg", "result": "does not produce hyperthermia in the post-anesthesia period; also recorded: did not cause hyperthermia even when the animals recovered from anesthesia"},
      {"measurement": "development of hypothermia during anesthesia (core body temperature)", "setting": "TRPV1 [7]; isoflurane 45 min, 0.1 mg/kg tail vein injection", "result": "never developed hypothermia throughout the anesthesia period"},
      {"measurement": "hyperthermia under ketamine anesthesia", "setting": "TRPV1 [8]", "result": "without causing hyperthermia at all time points tested"},
      {"measurement": "reversal of ketamine-induced hypothermia (core body temperature)", "setting": "TRPV1 [8]; 20 minutes post ketamine", "result": "dose dependently and statistically significantly"},
      {"measurement": "ability to cause hyperthermia", "setting": "TRPV1 [1]", "result": "able to cause hyperthermia"}
    ]},
    {"smiles": "CC(C)(C)c1ccc(/C=C/C(=O)Nc2ccc3c(c2)OCCO3)cc1", "note": "[AMG 9810]", "values": [
      {"measurement": "ability to cause hyperthermia", "setting": "TRPV1 [2]", "result": "able to cause hyperthermia"},
      {"measurement": "reversal/prevention of anesthesia-induced hypothermia (rectal temperature)", "setting": "TRPV1 [3]", "result": "dose dependently reverse anesthesia-induced hypothermia"},
      {"measurement": "ability to cause hyperthermia", "setting": "TRPV1 [1]", "result": "able to cause hyperthermia"},
      {"measurement": "ability to cause hyperthermia", "setting": "TRPV1 [1]; listed as AMG", "result": "cause hyperthermia in unanesthetized rats"}
    ]},
    {"smiles": "COc1cccc(NC(=O)/C=C/c2ccc(Cl)cc2)c1", "note": "[SB366791]", "values": [
      {"measurement": "reversal/prevention of anesthesia-induced hypothermia (rectal temperature)", "setting": "TRPV1 [3]", "result": "dose dependently reverse anesthesia-induced hypothermia"},
      {"measurement": "ability to cause hyperthermia", "setting": "TRPV1 [1]", "result": "unable to cause hyperthermia"},
      {"measurement": "ability to cause hyperthermia", "setting": "TRPV1 [1]; listed as SB", "result": "cause hyperthermia in unanesthetized rats"}
    ]},
    {"smiles": "Oc1cc2c(cc1O)CN(C(=S)NCCc1ccc(Cl)cc1)CCC2", "note": "[capsazepine]", "values": [
      {"measurement": "reversal/prevention of anesthesia-induced hypothermia (rectal temperature)", "setting": "TRPV1 [3]", "result": "able to prevent anesthesia-induced hypothermia; also recorded: dose dependently reverse anesthesia-induced hypothermia"},
      {"measurement": "ability to cause hyperthermia", "setting": "TRPV1 [1]", "result": "unable to cause hyperthermia; also recorded: don't"}
    ]},
    {"smiles": "CN1CC[C@]23c4c5ccc(O)c4O[C@H]2[C@@H](O)C=C[C@H]3[C@H]1C5", "note": "[morphine]", "values": [
      {"measurement": "morphine analgesic effect on postsurgical thermal and mechanical hyperalgesia", "setting": "TRPV1 [4]; animals that received preemptive TRPV1 antagonist treatment before the surgical insult", "result": "analgesic effect at much lower doses of 0.3 and 0.6 mg/kg"},
      {"measurement": "morphine analgesic effect on postsurgical thermal and mechanical hyperalgesia", "setting": "TRPV1 [4]; vehicle treated animals", "result": "not responsive to morphine until the dose of morphine was raised to 1 mg/kg"}
    ]}
  ]
}
